This experiment has as its target HCV NS3-4A serine protease (full-length NS3-4A protein) (Hepatitis C virus genotype 1a (isolate 1) (HCV), UniProt P26664). The experiment can be described thus: HCV NS3-4A protease assay. It counts as biochemical, HCV genotype 1a. To be noted: strain HCV-1, fluorogenic peptide substrate, read-out: Protease assay Ex. 12 IC50. The method, then:
The inhibitory activity of certain compounds of Table A against HCV NS3-4A serine protease is determined in a homogenous assay using the full-length NS3-4A protein (genotype 1a, strain HCV-1) and a commercially available internally-quenched fluorogenic peptide substrate as described by Taliani, M., et al. 1996 Anal. Biochem. 240:60-67, which is incorporated by reference in its entirety.
Sequence of HCV NS3-4A serine protease (full-length NS3-4A protein) (P26664 1027-1657): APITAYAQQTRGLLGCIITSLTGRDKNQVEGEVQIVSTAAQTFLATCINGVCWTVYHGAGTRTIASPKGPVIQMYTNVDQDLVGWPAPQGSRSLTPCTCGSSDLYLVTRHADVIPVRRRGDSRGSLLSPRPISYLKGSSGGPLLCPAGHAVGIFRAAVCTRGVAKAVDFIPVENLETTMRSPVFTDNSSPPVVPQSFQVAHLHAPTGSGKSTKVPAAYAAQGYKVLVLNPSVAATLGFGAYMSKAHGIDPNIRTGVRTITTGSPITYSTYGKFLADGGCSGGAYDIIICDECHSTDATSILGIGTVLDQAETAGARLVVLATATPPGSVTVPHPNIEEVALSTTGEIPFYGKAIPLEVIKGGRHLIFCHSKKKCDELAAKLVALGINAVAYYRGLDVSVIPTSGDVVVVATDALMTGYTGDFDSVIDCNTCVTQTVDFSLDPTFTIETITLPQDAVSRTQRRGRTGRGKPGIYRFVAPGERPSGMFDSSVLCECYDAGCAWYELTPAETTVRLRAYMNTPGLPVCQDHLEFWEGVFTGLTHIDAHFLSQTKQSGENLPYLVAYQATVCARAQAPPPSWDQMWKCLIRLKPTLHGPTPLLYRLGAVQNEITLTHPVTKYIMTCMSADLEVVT
Sequence of HCV NS3-4A serine protease (full-length NS3-4A protein) (P26664 1658-1711 partner): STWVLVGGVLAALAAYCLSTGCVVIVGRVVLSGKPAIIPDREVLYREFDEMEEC
Turning to `C=C[C@@H]1C[C@]1(NC(=O)[C@@H]1C[C@@]2(CN1C(=O)[C@@H](NC(=O)[C@@H](NC(=O)[C@@H]1CCCN1CC)C1CCCCC1)C1CCOCC1)C(C)(C)C21CCC1)C(=O)NS(=O)(=O)N(CC)CC` [Compound 96, (5R,8S)-7-[(2S)-2-{[(2S)-2-cyclohexyl-2-({[(2S)-1-ethylpyrrolidin-2-yl]carbonyl}amino)acetyl]amino}-2-(tetrahydro-2H-pyran-4-yl)acetyl]-N-[(1R,2S)-1-{[(diethylamino)sulfonyl]carbamoyl}-2-vinylcyclopropyl]-10,10-dimethyl-7-azadispiro[3.0.4.1]decane-8-carboxamide], the IC50 was found to be 7 nM.
As for `C=C[C@@H]1C[C@]1(NC(=O)[C@@H]1C[C@@]2(CN1C(=O)[C@@H](NC(=O)[C@@H](NC(=O)c1cc3ccccc3[nH]1)C1CCCCC1)C(C)(C)C)C(C)(C)C21CCC1)C(=O)NS(=O)(=O)N1CCCC1` [Compound 188, (5R,8S)-7-[(2S)-2-({cyclohexyl[(1H-indol-2-ylcarbonyl)amino]acetyl}amino)-3,3-dimethylbutanoyl]-10,10-dimethyl-N-{(1R,2S)-1-[(pyrrolidin-1-ylsulfonyl)carbamoyl]-2-vinylcyclopropyl}-7-azadispiro[3.0.4.1]decane-8-carboxamide], the figure is 20 nM; as for `C=C[C@@H]1C[C@]1(NC(=O)[C@@H]1C[C@@]2(CN1C(=O)[C@@H](NC(=O)[C@@H](NC(=O)Cn1nc(C)cc1C)C1CCCCC1)C(C)(C)C)C(C)(C)C21CCC1)C(=O)NS(=O)(=O)N1CCCC1` [Compound 186, (5R,8S)-7-{(2S)-2-[(cyclohexyl{[(3,5-dimethyl-1H-pyrazol-1-yl)acetyl]amino}acetyl)amino]-3,3-dimethylbutanoyl}-10,10-dimethyl-N-{(1R,2S)-1-[(pyrrolidin-1-ylsulfonyl)carbamoyl]-2-vinylcyclopropyl}-7-azadispiro[3.0.4.1]decane-8-carboxamide], 65 nM.
The value for `C=C[C@@H]1C[C@]1(NC(=O)[C@@H]1C[C@@]2(CN1C(=O)[C@@H](NC(=O)[C@@H](NC(=O)[C@@H]1CCCCN1C(C)C)C(C)(C)C)C1(C)CCOCC1)C(C)(C)C21CCC1)C(=O)NS(=O)(=O)N1CCCC1` [Compound 128, (5R,8S)-7-[(2S)-2-[(N-{[(2S)-1-isopropylpiperidin-2-yl]carbonyl}-3-methyl-L-valyl)amino]-2-(4-methyltetrahydro-2H-pyran-4-yl)acetyl]-10,10-dimethyl-N-{(1R,2S)-1-[(pyrrolidin-1-ylsulfonyl)carbamoyl]-2-vinylcyclopropyl}-7-azadispiro[3.0.4.1]decane-8-carboxamide] was 1.4 nM; that for `CC[C@@H]1C[C@]1(NC(=O)[C@@H]1C[C@@]2(CN1C(=O)[C@@H](NC(=O)[C@@H](NC(=O)[C@@H]1CCCCN1C(C)C)C1CCCCC1)C(C)(C)C)C(C)(C)C21CCC1)C(=O)NS(=O)(=O)N(C)C1CC1` [Compound 90, (5R,8S)-7-[(2S)-2-{[(2S)-2-cyclohexyl-2-({[(2S)-1-isopropylpiperidin-2-yl]carbonyl}amino)acetyl]amino}-3,3-dimethylbutanoyl]-N-[(1R,2R)-1-({[cyclopropyl(methyl)amino]sulfonyl}carbamoyl)-2-ethylcyclopropyl]-10,10-dimethyl-7-azadispiro[3.0.4.1]decane-8-carboxamide] was 6.5 nM; that for `C=C[C@@H]1C[C@]1(NC(=O)[C@@H]1C[C@@]2(CN1C(=O)[C@@H](NC(=O)[C@@H](NC(=O)[C@@H]1CCCN1C(C)C)C(C)(C)C)C(C)(C)C)C(C)(C)C21CCC1)C(=O)NS(=O)(=O)N1CCCC1` [Compound 11, (5R,8S)-7-[(2S)-2-{[(2S)-2-({[(2S)-1-isopropylpyrrolidin-2-yl]carbonyl}amino)-3,3-dimethylbutanoyl]amino}-3,3-dimethylbutanoyl]-10,10-dimethyl-N-{(1R,2S)-1-[(pyrrolidin-1-ylsulfonyl)carbamoyl]-2-vinylcyclopropyl}-7-azadispiro[3.0.4.1]decane-8-carboxamide] was 20 nM.

These data come from patent publication US8613914B2, “Peptidomimetic sulfamide compounds and antiviral uses thereof” (Novartis AG, priority 2009, dated 2013).
